Legend:
[1] = target: hCB2R (Homo sapiens, UniProt P34972); assay: hCB2R cAMP assay; assay type: cell-based; settings: for agonist activity at the CB2R (in words): CHO cell cAMP assay
[2] = test system: panel of GPCRs; assay: GPCR off-target screen, whole panel; assay type: binding; settings: 1 μM; selection of 24 GPCRs (Table S3)
[3] = test system: panel of kinases; assay: Kinase off-target screen, whole panel; assay type: binding; settings: 10 μM; 97 kinases (Table S4)
[4] = Mouse liver microsome; assay type: in vitro ADME; settings: mouse liver microsomes, 37 °C, with NADPH
[5] = Solubility observations; assay type: physicochemical; settings: in the vehicle (DMSO) or under the assay conditions

hCB2R, sequence (P34972 whole entry): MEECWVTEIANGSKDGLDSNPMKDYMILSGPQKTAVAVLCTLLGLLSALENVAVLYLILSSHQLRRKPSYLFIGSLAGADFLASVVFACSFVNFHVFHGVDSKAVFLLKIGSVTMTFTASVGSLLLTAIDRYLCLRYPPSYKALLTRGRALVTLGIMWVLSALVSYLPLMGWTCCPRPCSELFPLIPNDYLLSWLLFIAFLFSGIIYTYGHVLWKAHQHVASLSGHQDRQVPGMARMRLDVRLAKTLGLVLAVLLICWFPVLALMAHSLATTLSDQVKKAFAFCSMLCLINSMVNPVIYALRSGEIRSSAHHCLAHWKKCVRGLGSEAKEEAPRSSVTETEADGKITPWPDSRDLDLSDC

N#Cc1ccccc1CSc1nnc2c(n1)[nH]c1ccccc12 [Compound 7, 3-((2′-Cyanobenzyl)thio)-5H-[1,2,4]triazino[5,6-b]indole]
EC50 [1]: 120 nM
binding at any of the GPCRs tested [2]: no significant binding
binding with any of the kinases tested [3]: no significant binding

Sc1nnc2c(n1)[nH]c1ccccc12 [Compound 9, 5H-[1,2,4]Triazino[5,6-b]indole-3-thiol]
agonist activity at the CB2R (in words) [1]: no detectable agonist activity

Fc1ccccc1CSc1nnc2c(n1)[nH]c1ccccc12 [Compound 14, 3-((2′-Fluorobenzyl)thio)-5H-[1,2,4]triazino[5,6-b]indole]
agonist activity at the CB2R (in words) [1]: no activity up to the highest concentrations tested

CC(=O)n1c2ccccc2c2nnc(SCc3ccccc3C#N)nc21 [Compound 66, 2′(((5-Acetyl-5H-[1,2,4]triazino[5,6-b]indol-3-yl)thio)methyl)benzonitrile]
agonist activity at the CB2R (in words) [1]: no detectable activity

N#Cc1ccccc1CSc1nnc2c3ccccc3n(C(=O)c3ccccc3)c2n1 [Compound 72]
MLM stability t1/2 [4]: no parent compound could be detected at the earliest time point

CN(C)c1ccc(C(=O)n2c3ccccc3c3nnc(SCc4ccccc4C#N)nc32)cc1 [Compound 78]
solubility (in words) [5]: extremely poorly soluble under the assay conditions

— article PMC4346271 (Bioorganic & Medicinal Chemistry, 2015)
